The values below are quoted from earlier work in patent US20240325474A1 (priority 2023, published 2024).

The structures appear in SMILES notation. In brackets after ≈: the same amount, converted by molar mass.

The subject of one data set is SARS-COV-2. The note with it: Calu-3 cells.
Data set [1] relates to Calu-3 lung epithelia cell lines.

The term IC50 denotes the concentration at which inhibition is half-maximal. For orientation: CC50 means the concentration that lowers cell viability or growth by half. `C=C1CC[C@@H]2[C@](C)(CO)[C@H](O)CC[C@@]2(C)[C@@H]1C/C=C1/C(=O)OC[C@H]1O` [andrographolide]: the IC50 in the data set with SARS-COV-2 is 34 nM. Besides, the CC50 in data set [1] was 58.03 µg/mL (≈ 166 µM).
